Test results reported in patent US9125913B2, “Bcl-2-selective apoptosis-inducing agents for the treatment of cancer and immune diseases” (AbbVie Inc., priority 2008, dated 2015).

test system: GST-Bcl-2; assay: TR-FRET binding assay, Bcl-2; conditions: TR-FRET Ki values
Outline: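 Compounds serially diluted in DMSO from 50 μM (2× starting concentration, 10% DMSO), mixed with GST-tagged protein, F-Bak peptide probe and Tb-labeled antibody, incubated 3 h at room temperature.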

Row | Compound | Binding selectivity ratio (Bcl-XL Ki/Bcl-2 Ki)
1 | CC1(C)CCC(CN2CCN(c3ccc(C(=O)NS(=O)(=O)c4cnc(OCC5(F)CCOCC5)c(Cl)c4)c(Oc4cccc5[nH]ccc45)c3)CC2)=C(c2ccc(Cl)cc2)C1 [EXAMPLE 405, N-({5-chloro-6-[(4-fluorotetrahydro-2H-pyran-4-yl)methoxy]pyridin-3-yl}sulfonyl)-4-(4-{[2-(4-chlorophenyl)-4,4-dimethylcyclohex-1-en-1-yl]methyl}piperazin-1-yl)-2-(1H-indol-4-yloxy)benzamide] | 1395
2 | CC1(C)CCC(CN2CCN(c3ccc(C(=O)NS(=O)(=O)c4ccc(NC(CO)C5CCOCC5)c([N+](=O)[O-])c4)c(Oc4ccc5[nH]ccc5c4)c3)CC2)=C(c2ccc(Cl)cc2)C1 (stereo not shown) [EXAMPLE 242, 4-(4-{[2-(4-chlorophenyl)-4,4-dimethylcyclohex-1-en-1-yl]methyl}piperazin-1-yl)-N-({4-[(2-hydroxy-1-tetrahydro-2H-pyran-4-ylethyl)amino]-3-nitrophenyl}sulfonyl)-2-(1H-indol-5-yloxy)benzamide] | >367.6
3 | CC1(C)CCC(CN2CCN(c3ccc(C(=O)NS(=O)(=O)c4ccc(NC5CCN(CCn6cccn6)CC5)c([N+](=O)[O-])c4)c(Oc4ccc5[nH]ccc5c4)c3)CC2)=C(c2ccc(Cl)cc2)C1 [EXAMPLE 243, 4-(4-{[2-(4-chlorophenyl)-4,4-dimethylcyclohex-1-en-1-yl]methyl}piperazin-1-yl)-2-(1H-indol-5-yloxy)-N-{[3-nitro-4-({1-[2-(1H-pyrazol-1-yl)ethyl]piperidin-4-yl}amino)phenyl]sulfonyl}benzamide] | >2357.6
4 | CC1(C)CCC(CN2CCN(c3ccc(C(=O)NS(=O)(=O)c4ccc(NC5CCN(C6Cc7ccccc7C6)CC5)c([N+](=O)[O-])c4)c(Oc4ccc5[nH]ccc5c4)c3)CC2)=C(c2ccc(Cl)cc2)C1 [EXAMPLE 228, 4-(4-{[2-(4-chlorophenyl)-4,4-dimethylcyclohex-1-en-1-yl]methyl}piperazin-1-yl)-N-[(4-{[1-(2,3-dihydro-1H-inden-2-yl)piperidin-4-yl]amino}-3-nitrophenyl)sulfonyl]-2-(1H-indol-5-yloxy)benzamide] | >141.4
5 | CC1(C)CCC(CN2CCN(c3ccc(C(=O)NS(=O)(=O)c4ccc(NC5CCN(S(C)(=O)=O)CC5)c([N+](=O)[O-])c4)c(Oc4cccc5[nH]ccc45)c3)CC2)=C(c2ccc(Cl)cc2)C1 [EXAMPLE 338, 4-(4-{[2-(4-chlorophenyl)-4,4-dimethylcyclohex-1-en-1-yl]methyl}piperazin-1-yl)-2-(1H-indol-4-yloxy)-N-[(4-{[1-(methylsulfonyl)piperidin-4-yl]amino}-3-nitrophenyl)sulfonyl]benzamide] | >1637.7
6 | CC1(C)CCC(CN2CCN(c3ccc(C(=O)NS(=O)(=O)c4ccc(NC5CCN(C6CCOCC6)CC5)c([N+](=O)[O-])c4)c(Oc4ccc5[nH]ccc5c4)c3)CC2CO)=C(c2ccc(Cl)cc2)C1 (stereo not shown) [EXAMPLE 219, 4-[4-{[2-(4-chlorophenyl)-4,4-dimethylcyclohex-1-en-1-yl]methyl}-3-(hydroxymethyl)piperazin-1-yl]-2-(1H-indol-5-yloxy)-N-({3-nitro-4-[(1-tetrahydro-2H-pyran-4-ylpiperidin-4-yl)amino]phenyl}sulfonyl)benzamide] | 126.8
7 | CC1(C)CCC(CN2CCN(c3ccc(C(=O)NS(=O)(=O)c4ccc(NCC5CCN(C(=O)OCc6ccccc6)CC5)c([N+](=O)[O-])c4)c(Oc4ccc5[nH]ccc5c4)c3)CC2)=C(c2ccc(Cl)cc2)C1 [EXAMPLE 356, benzyl 4-({[4-({[4-(4-{[2-(4-chlorophenyl)-4,4-dimethylcyclohex-1-en-1-yl]methyl}piperazin-1-yl)-2-(1H-indol-5-yloxy)benzoyl]amino}sulfonyl)-2-nitrophenyl]amino}methyl)piperidine-1-carboxylate] | >131.6
